This note sets out measurements from patent US10695348B2, “Sulfonyl pyridyl TRP inhibitors” (Genentech, Inc., priority 2017, dated 2020).

T1 sequence (O75762 whole entry): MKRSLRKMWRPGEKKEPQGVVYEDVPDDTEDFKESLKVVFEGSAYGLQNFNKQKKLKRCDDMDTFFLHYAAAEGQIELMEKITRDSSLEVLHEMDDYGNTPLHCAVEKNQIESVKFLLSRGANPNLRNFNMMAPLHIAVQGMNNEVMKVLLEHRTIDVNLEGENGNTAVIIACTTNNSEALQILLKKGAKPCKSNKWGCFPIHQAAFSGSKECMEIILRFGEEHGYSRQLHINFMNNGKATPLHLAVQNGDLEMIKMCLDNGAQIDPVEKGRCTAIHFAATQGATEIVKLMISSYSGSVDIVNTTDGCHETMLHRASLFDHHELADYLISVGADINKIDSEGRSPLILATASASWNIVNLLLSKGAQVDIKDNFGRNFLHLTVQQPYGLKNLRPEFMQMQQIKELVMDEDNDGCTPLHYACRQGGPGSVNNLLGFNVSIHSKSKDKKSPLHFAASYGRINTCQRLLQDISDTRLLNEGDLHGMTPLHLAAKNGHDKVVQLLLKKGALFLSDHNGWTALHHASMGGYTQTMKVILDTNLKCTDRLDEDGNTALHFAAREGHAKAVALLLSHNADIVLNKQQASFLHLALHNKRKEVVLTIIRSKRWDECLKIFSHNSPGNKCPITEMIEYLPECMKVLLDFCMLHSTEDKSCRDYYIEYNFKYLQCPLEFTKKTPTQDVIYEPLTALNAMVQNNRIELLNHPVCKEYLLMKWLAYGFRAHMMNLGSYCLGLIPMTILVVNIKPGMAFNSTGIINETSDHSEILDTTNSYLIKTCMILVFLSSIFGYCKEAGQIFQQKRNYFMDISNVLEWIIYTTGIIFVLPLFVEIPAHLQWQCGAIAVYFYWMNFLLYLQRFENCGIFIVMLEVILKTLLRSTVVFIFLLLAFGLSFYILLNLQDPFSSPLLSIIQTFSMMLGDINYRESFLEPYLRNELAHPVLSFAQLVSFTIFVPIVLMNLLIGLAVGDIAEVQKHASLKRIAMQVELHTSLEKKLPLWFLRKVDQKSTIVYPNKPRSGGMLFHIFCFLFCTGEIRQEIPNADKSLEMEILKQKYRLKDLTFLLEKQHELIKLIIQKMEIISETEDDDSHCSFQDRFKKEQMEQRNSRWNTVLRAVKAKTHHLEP

This test has as its target T1, human TRPA1 (Homo sapiens, UniProt O75762).
T1 construct: expressed in transfected cells; host or cells: CHO cells
The test can be described thus: FLIPR Tetra calcium influx assay, CHO cells expressing TRPA1, cinnamaldehyde agonist (hTRPA1 CHO Ca2+ AUC EVO). The class given is cell-based. The conditions noted are these: CHO cells expressing human TRPA1; 75 uM cinnamaldehyde; Hill coefficient fixed to 1.5; read-out: hTRPA1 IC50 (hTRPA1 CHO Ca2+ AUC EVO (IC50)). On the procedure: The IC50 ([…]) of compounds on the human and rat TRPA1 channels were determined using a FLIPR Tetra instrument. CHO cells expressing TRPA1 were plated into 384-well plates, incubated overnight at 37° C., and loaded with BD calcium indicator dye for 1 hr at 37° C. followed by 15 minutes at room temperature. The assay buffer was Hank's Balanced Salt Solution (HBSS) containing 20 mM HEPES (pH readjusted to 7.4) along with 0.02% BSA.
Following dye load and plate cool down, compounds were added to the cells using FLIPR Tetra. Plates were then incubated with compounds for 20 minutes at room temperature prior to adding agonist. Following this incubation, about an EC80 concentration of cinnamaldehyde (75 uM for human TRPA1 and 45 uM for rat TRPA1) was added to active the channels and block of cinnamaldehyde induced calcium influx was measured.
The IC50 results were fit with a standard Hill function, keeping the Hill coefficient (n) fixed to 1.5. Fixing the Hill coefficient will generally reduce variability of the IC50 determination. The IC50 results were individually examined to make sure the MIN and MAX points were set correctly prior to validation of the results.
Usually IC50 stands for the midpoint of a concentration-inhibition curve. Consider `C[C@H]1[C@H](F)C[C@@H](C(=O)NCc2cc(-c3cnc(C(F)(F)F)nc3)ncc2C(F)(F)F)N1S(=O)(=O)c1ccc(F)cn1` [[1], (2S,4R,5S)-4-fluoro-1-[(5-fluoro-2-pyridyl)sulfonyl]-5-methyl-N-[[5-(trifluoromethyl)-2-[2-(trifluoromethyl)pyrimidin-5-yl]-4-pyridyl]methyl]pyrrolidine-2-carboxamide], for which the IC50 was 2.69 nM.

For `C[C@H]1[C@H](F)C[C@@H](C(=O)NCc2cc(-c3cnc(C(F)(F)F)nc3)ncc2C(F)(F)F)N1S(=O)(=O)c1cccnc1` [[2], (2S,4R,5S)-4-fluoro-5-methyl-1-(3-pyridylsulfonyl)-N-[[5-(trifluoromethyl)-2-[2-(trifluoromethyl)pyrimidin-5-yl]-4-pyridyl]methyl]pyrrolidine-2-carboxamide], the 50% inhibitory concentration (IC50) is 32 nM.

Turning to `C[C@H]1[C@H](F)C[C@@H](C(=O)NCc2cc(-c3cnc(C(F)(F)F)nc3)ncc2C(F)(F)F)N1S(=O)(=O)c1cncc(Cl)c1` [[3], (2S,4R,5S)-1-[(5-chloro-3-pyridyl)sulfonyl]-4-fluoro-5-methyl-N-[[5-(trifluoromethyl)-2-[2-(trifluoromethyl)pyrimidin-5-yl]-4-pyridyl]methyl]pyrrolidine-2-carboxamide], the IC50 was determined as 3.09 nM.

`C[C@H]1[C@H](F)C[C@@H](C(=O)NCc2cc(-c3cnc(C(F)(F)F)nc3)ncc2C(F)(F)F)N1S(=O)(=O)c1cc2c(Cl)nccc2o1` [[4], (2S,4R,5S)-1-(4-chlorofuro[3,2-c]pyridin-2-yl)sulfonyl-4-fluoro-5-methyl-N-[[5-(trifluoromethyl)-2-[2-(trifluoromethyl)pyrimidin-5-yl]-4-pyridyl]methyl]pyrrolidine-2-carboxamide]: the concentration for half-maximal inhibition (IC50) worked out at 0.634 nM.

As for `C[C@H]1[C@H](F)C[C@@H](C(=O)NCc2cc(-c3cnc(C(F)(F)F)nc3)ncc2C(F)(F)F)N1S(=O)(=O)c1cc2cnccc2o1` [[5], (2S,4R,5S)-4-fluoro-1-furo[3,2-c]pyridin-2-ylsulfonyl-5-methyl-N-[[5-(trifluoromethyl)-2-[2-(trifluoromethyl)pyrimidin-5-yl]-4-pyridyl]methyl]pyrrolidine-2-carboxamide], the IC50 worked out at 1.91 nM.

With `C[C@H]1[C@H](F)C[C@@H](C(=O)NCc2cc(-c3cnc(C(F)(F)F)nc3)ncc2C(F)(F)F)N1S(=O)(=O)c1ccc(Cl)cn1` [[6], (2S,4R,5S)-1-[(5-chloro-2-pyridyl)sulfonyl]-4-fluoro-5-methyl-N-[[5-(trifluoromethyl)-2-[2-(trifluoromethyl)pyrimidin-5-yl]-4-pyridyl]methyl]pyrrolidine-2-carboxamide], the IC50 is 2.16 nM.

On to `C[C@H]1[C@H](F)C[C@@H](C(=O)NCc2cc(-c3cnc(C(F)(F)F)nc3)ncc2C(F)(F)F)N1S(=O)(=O)c1ncccc1F` [[7], (2S,4R,5S)-4-fluoro-1-[(3-fluoro-2-pyridyl)sulfonyl]-5-methyl-N-[[5-(trifluoromethyl)-2-[2-(trifluoromethyl)pyrimidin-5-yl]-4-pyridyl]methyl]pyrrolidine-2-carboxamide], for which the IC50 worked out at 633 nM.

Take `C[C@H]1[C@H](F)C[C@@H](C(=O)NCc2cc(-c3cnc(C(F)(F)F)nc3)ncc2C(F)(F)F)N1S(=O)(=O)c1ccc(C#N)cn1` [[8], (2S,4R,5S)-1-(5-cyanopyridin-2-ylsulfonyl)-4-fluoro-5-methyl-N-((5-(trifluoromethyl)-2-(2-(trifluoromethyl)pyrimidin-5-yl)pyridin-4-yl)methyl)pyrrolidine-2-carboxamide]: the IC50 was 73.5 nM.

On to `C[C@H]1[C@H](F)C[C@@H](C(=O)NCc2cc(-c3cnc(C(F)(F)F)nc3)ncc2Cl)N1S(=O)(=O)c1ccc(F)cn1` [[9], (2S,4R,5S)—N-((5-chloro-2-(2-(trifluoromethyl)pyrimidin-5-yl)pyridin-4-yl)methyl)-4-fluoro-1-(5-fluoropyridin-2-ylsulfonyl)-5-methylpyrrolidine-2-carboxamide], for which the IC50 stood at 16.7 nM.
